What was measured:
blood sugar = assay: Blood sugar lowering activity by intravenous injection into laboratory animals; assay type: in vivo; conditions: Table 2; percentage basis relative to insulin
From the text: (§1) In most cases the new derivatives have an initial bloor sugar lowering effect which is virtually indistinguishable from insulin itself. In contrast the derivatives have less than about 50% of the immunoreactivity of the parent insulin as determined by radioimmunoassay. In many cases the reduction in immunoreactivity (reactivity towards specific insulin antibody) is as low as 30% or even 10% of that of the parent hormone. The figures are expressed on a percentage basis relative to insulin.

[1] = test system: specific insulin antibody; assay: Radioimmunoassay of immunoreactivity (reactivity towards specific insulin antibody); assay type: binding; conditions: percentage basis relative to insulin; for Immunoreactivity: Table 2; for Radioimmunoassay Immunoreactivity: Table 1
From the text: as §1

Mouse = Mouse convulsion assay (British Pharmacopoeia, 1968) against neutral insulin standard; assay type: in vivo; conditions: Table 1; percentage basis relative to insulin
From the text: as §1
The insulin derivatives were separated from trace amounts of urea and salt by elution from a Sephadex G.10 column (2.5 × 60 cm.) equilibrated with 5% aqueous acid and the protein, after lyophilisation, was dried over phosphorous pentoxide at room temperature for 2 days. The derivatives were assayed against a neutral insulin solution (Nuso insulin batch A 354) as standard by the Mouse Convulsion method (British Pharmacopoeia, 1968). All injections were of solutions in acetate buffer, pH 8.0.

Substance: Phe^B1 -Gly^A1 -disubstituted insulins (b) methylthiocarbamyl: Insulin methylthiocarbamylated at A1 and B1
- Blood sugar lowering (blood sugar): 100%
- Immunoreactivity [1]: 20%

Substance: Phe^B1 Gly^A1 -diacetyl insulin
- Radioimmunoassay Immunoreactivity [1]: 25%
- Mouse convulsion assay Mean potency (Mouse): 90%

Substance: (Carbamyl-Phe)B1 -insulin
- Blood sugar lowering (blood sugar): 100%
- Immunoreactivity [1]: 23%

Substance: Phe^B1 -monosubstituted insulins (c) Thiazolidine (bovine): Bovine insulin acylated at B1 phenylalanine with 2,2-dimethyl-3-formyl-L-thiazolidine-4-carboxylic acid
- Radioimmunoassay Immunoreactivity [1]: 27%
- Mouse convulsion assay Mean potency (Mouse): 103%

Substance: Phe^B1 acetyl insulin
- Radioimmunoassay Immunoreactivity [1]: 30%
- Mouse convulsion assay Mean potency (Mouse): 100%

Substance: Phe^B1, Gly^A1 -disubstituted insulins (b) Acetoacetyl (bovine): Bovine insulin acetoacetylated at B1 and A1
- Radioimmunoassay Immunoreactivity [1]: 14%
- Mouse convulsion assay Mean potency (Mouse): 76%

Substance: Phe^B1, Gly^A1, Lys^B29 -trisubstituted insulins (b) Acetoacetyl (bovine): Bovine insulin acetoacetylated at A1, B1 and B29
- Radioimmunoassay Immunoreactivity [1]: 17%
- Mouse convulsion assay Mean potency (Mouse): 77%

Substance: (Carbamyl-Gly)A1 -(Carbamyl-Phe)B1 -insulin
- Blood sugar lowering (blood sugar): 100%
- Immunoreactivity [1]: 10%

Substance: A1, B1, B29 -triacetyl-insulin
- Radioimmunoassay Immunoreactivity [1]: 10%
- Mouse convulsion assay Mean potency (Mouse): 96%

Substance: Crystalline bovine insulin: Parent bovine insulin, reference set to 100 [reference compound]
- Blood sugar lowering (blood sugar): 100%
- Radioimmunoassay Immunoreactivity [1]: 100%
- Immunoreactivity [1]: 100%
- Mouse convulsion assay Mean potency (Mouse): 100%

Substance: Gly^A1 -monosubstituted insulin (a) carbamyl: Insulin carbamylated at A1 glycine
- Blood sugar lowering (blood sugar): 100%

Substance: Gly^A1 -monosubstituted insulins (c) Thiazolidine (bovine): Bovine insulin acylated at A1 glycine with 2,2-dimethyl-3-formyl-L-thiazolidine-4-carboxylic acid
- Radioimmunoassay Immunoreactivity [1]: 81%
- Mouse convulsion assay Mean potency (Mouse): 57%

Substance: Gly^A1 -monosubstituted insulin (b) methylthiocarbamyl: Insulin methylthiocarbamylated at A1 glycine
- Blood sugar lowering (blood sugar): 100%
- Immunoreactivity [1]: 92%

Substance: Gly^A1 Lys^B29 -diacetyl insulin
- Radioimmunoassay Immunoreactivity [1]: 67%
- Mouse convulsion assay Mean potency (Mouse): 93%

Substance: Gly^A1 -monosubstituted insulins (b) Acetoacetyl (bovine): Bovine insulin acetoacetylated at the A1 glycine amino group
- Radioimmunoassay Immunoreactivity [1]: 87%
- Mouse convulsion assay Mean potency (Mouse): 88%

Substance: (Carbamyl-Gly)A1 -(Carbamyl-Phe)B1 -(Carbamyl-Lys)B29 -insulin
- Blood sugar lowering (blood sugar): 100%
- Immunoreactivity [1]: 9%

Substance: Phe^B1 -monosubstituted insulins (b) Acetoacetyl (bovine): Bovine insulin acetoacetylated (diketen) at the B1 phenylalanine amino group
- Radioimmunoassay Immunoreactivity [1]: 8.6%
- Mouse convulsion assay Mean potency (Mouse): 109%

Substance: Gly^A1 -monosubstituted insulins (a) Acetyl (bovine): Bovine insulin acetylated at the A1 glycine amino group
- Radioimmunoassay Immunoreactivity [1]: 71%
- Mouse convulsion assay Mean potency (Mouse): 105%

Substance: Lys^B29 -monosubstituted insulins (b) Thiazolidine (bovine): Bovine insulin acylated at B29 lysine with 2,2-dimethyl-3-formyl-L-thiazolidine-4-carboxylic acid
- Radioimmunoassay Immunoreactivity [1]: 84%
- Mouse convulsion assay Mean potency (Mouse): 101%

Substance: Lys^B29 acetyl insulin
- Radioimmunoassay Immunoreactivity [1]: 83%
- Mouse convulsion assay Mean potency (Mouse): 114%

Source: patent US3950517A, “Insulin derivatives” (National Research Development Corporation, priority 1970, dated 1976)
